Experimental data: paper PMC11264232, “Are the metal identity and stoichiometry of metal complexes important for colchicine site binding and inhibition of tubulin polymerization?” (Dalton Transactions (Cambridge, England : 2003), 2024)
Where “and” joins values, the source holds several entries; their conditions need not be identical. Equal values may be shown once.

Tests used:
SR = assay: NCI-60 five-dose screen; type: cell-based, human; details: Leukemia
Protocol: (§3) The NCI-60 SRB assay was performed as described previously.[76] GI50 values (the concentration of the metal complex causing 50% growth inhibition), TGI value (the concentration of the complex causing 0% cell growth), and LC50 (the concentration of the complex causing 50% cell death) were interpolated from dose–response curves that were plots of percentage cell growth versus concentration of test compounds.

[1] = test system: microtubule system in A549 cancer cells; assay: α-Tubulin immunostaining; type: cell-based, human; details: 80 μM, 24 h
Protocol: Since we found remarkable antiproliferative activity exerted by some of the tested compounds by the BrdU assay, and it was also shown that some of the compounds might interfere with tubulin polymerization in cell-free tests, we examined whether the metal complexes or the proligands influence the structure of the microtubule system in A549 cancer cells. For this purpose, the cells were treated with either DMSO, HL^1–HL^3, or with complexes 1, 2, 4 and 5, or were left untreated, followed by α-tubulin immunostaining (Fig. 11). In the untreated samples normal cell morphology and filamentous microtubule structure was observed.
The structure of microtubules was visualized by α-tubulin immunostaining on A549 cells. For this, 5 × 10^4 cells per well were seeded onto coverslips in 24-well plates. […] Then samples were fixed with 4% formaldehyde (Molar Chemicals, Halásztelek, Hungary), permeabilized with 0.3% Triton-X-100 (Calbiochem, Merck Millipore, Darmstadt, Germany) and were blocked using 5% BSA (Sigma-Aldrich, St Louis, Missouri, USA) diluted in PBS. Then the cells were incubated with anti-α-tubulin antibody (Thermo Fisher Scientific, monoclonal mouse antibody, DM1A, Waltham, Massachusetts, USA) in a 1 : 300 dilution in 1% BSA followed by Alexa 488 fluorophore-conjugated goat anti-mouse secondary antibody (Abcam, Cambridge, UK) in a 1 : 600 dilution in 1% BSA. […]

KM12 = assay: NCI-60 five-dose screen; type: cell-based, human; details: Colon cancer
Protocol: as §3

BT-549 = assay: NCI-60 five-dose screen; type: cell-based, human; details: Breast cancer
Protocol: as §3

HCC-2998 = assay: NCI-60 five-dose screen; type: cell-based, human; details: Colon cancer
Protocol: as §3

HCT-15 = assay: NCI-60 five-dose screen; type: cell-based, human; details: Colon cancer
Protocol: as §3

UO-31 = assay: NCI-60 five-dose screen; type: cell-based, human; details: Renal cancer
Description: (§4) GI50 values (the concentration of the metal complex causing 50% growth inhibition), TGI value (the concentration of the complex causing 0% cell growth), and LC50 (the concentration of the complex causing 50% cell death) were interpolated from dose–response curves that were plots of percentage cell growth versus concentration of test compounds.

ACHN = assay: NCI-60 five-dose screen; type: cell-based, human; details: Renal cancer
Protocol: as §3

[2] = test system: NCI 60 human tumor cell line panel; assay: NCI-60 five-dose screen, average across panel; type: cell-based; details: five-dose 0.01–100 μM
Protocol: as §3

A549/ATCC = assay: NCI-60 five-dose screen; type: cell-based, human; details: Non-Small Cell Lung Cancer
Protocol: as §3

TK-10 = assay: NCI-60 five-dose screen; type: cell-based, human; details: Renal cancer
Description: as §4

[3] = Solution stability by UV–vis spectrophotometry; type: physicochemical
CAKI-1 = assay: NCI-60 five-dose screen; type: cell-based, human; details: Renal cancer
Protocol: as §3

OVCAR-4 = assay: NCI-60 five-dose screen; type: cell-based, human; details: Ovarian cancer
Protocol: as §3

HS 578T = assay: NCI-60 five-dose screen; type: cell-based, human; details: Breast cancer
Protocol: as §3

LOX IMVI = details: Melanoma
Description: (§1) The proligands HL^1–HL^3 and their corresponding metal complexes 1–8 prepared in this study were subjected to evaluation of their anticancer potential, including selectivity towards specific types of cancer: leukemia, non-small cell lung (NSCLC), colon, central nervous system (CNS), melanoma, ovarian, renal, prostate and breast cancers, by the National Cancer Institute's Developmental Therapeutics Program. This evaluation involved the utilization of the NCI 60 human tumor cell line panel.[57] […] The GI50 data in μM are collected in Table 5.
(§2) The NCI-60 SRB assay was performed as described previously.[76]

MDA-MB-435 = details: Melanoma
Description: as §1, §2

SK-MEL-2 = details: Melanoma
Description: as §1, §2

SK-MEL-28 = details: Melanoma
Description: as §1, §2

UACC-257 = details: Melanoma
Description: as §1, §2

UACC-62 = details: Melanoma
Description: as §1, §2

M14 = details: Melanoma
Description: as §1, §2

MALME-3M = details: Melanoma
Description: as §1, §2

SK-MEL-5 = details: Melanoma
Description: as §1, §2

NCI-H522 = assay: NCI-60 five-dose screen; type: cell-based, human; details: Non-Small Cell Lung Cancer
Protocol: as §3

SF-268 = assay: NCI-60 five-dose screen; type: cell-based, human; details: CNS cancer
Description: as §4

HT29 = assay: NCI-60 five-dose screen; type: cell-based, human; details: Colon cancer
Protocol: as §3

K-562 = assay: NCI-60 five-dose screen; type: cell-based, human; details: Leukemia
Protocol: as §3

MDA-MB-231/ATCC = assay: NCI-60 five-dose screen; type: cell-based, human; details: Breast cancer
Protocol: as §3

SN12C = assay: NCI-60 five-dose screen; type: cell-based, human; details: Renal cancer
Protocol: as §3

OVCAR-3 = assay: NCI-60 five-dose screen; type: cell-based, human; details: Ovarian cancer
Protocol: as §3

NCI-H226 = assay: NCI-60 five-dose screen; type: cell-based, human; details: Non-Small Cell Lung Cancer
Protocol: as §3

U251 = assay: NCI-60 five-dose screen; type: cell-based, human; details: CNS cancer
Protocol: as §3

[4] = test system: A549 human lung adenocarcinoma cells; assay: MTT viability assay, 24 h; details: read-out: IC50 values A549; A549 cells, 24 h, MTT assay
Protocol: We wanted to compare the cytotoxicity of proligands HL^1–HL^3 and of their Co(III) and Fe(III) complexes 1, 2 and 4, 5 on cell lines originating from the same tissue, so human lung carcinoma A549 cells and lung fibroblast MRC-5 cells were subjected to 24 h treatments.
The biological effects of selected metal complexes (1, 2, 4 and 5) and of their proligands (HL^1, HL^2 and HL^3) were tested more extensively on A549 human lung adenocarcinoma cells and on MRC-5 human lung fibroblast cells. Both cell lines were obtained from ATCC and maintained in DMEM cell culture media containing 1.0 g L^−1 glucose (Biosera, Nuaille, France) complemented with 10% fetal bovine serum (FBS), 2 mM L-glutamine, 0.01% streptomycin and 0.005% penicillin and were cultured under standard conditions in a 37 °C incubator at 5% CO2 and 95% humidity. The viability of A549 and of MRC-5 fibroblast cells upon exposure to the selected metal–ligand complexes and ligands were evaluated by the MTT assay. For this, 10 000 cells per well were seeded into 96-well plates and left to grow. On the next day the cells were exposed to 0, 5, 10, 20, 40 or 80 μM of each compound or to an equivalent volume of DMSO for 24 h. After the treatments, cells were washed with PBS and then were incubated with 0.5 mg mL^−1 MTT reagent (Sigma-Aldrich, St Louis, Missouri, USA) for 1 h at 37 °C. Finally, 100 μL of DMSO (Molar Chemicals, Halásztelek, Hungary) was added to each well, and the absorbance of samples was measured at 570 nm using a Synergy HTX plate reader (BioTek, Winooski, Vermont, USA). The viability measurements were repeated three times using 3 independent biological replicates.

CC(=NN=C([S-])Nc1cc(C)c(O)c(C)c1)c1cccc(CN2CCOCC2)n1.CC(=NN=C([S-])Nc1cc(C)c(O)c(C)c1)c1cccc(CN2CCOCC2)n1.O=[N+]([O-])[O-].[Fe+3] [Complex 4, [Fe^III(L^2)2]NO3]
GI50 (SR): 2430 nM | effect on microtubule structure and cell morphology [1]: even greater disruption | GI50 (KM12): 2340 nM | GI50 (BT-549): 2190 nM | GI50 (HCC-2998): 2730 nM | GI50 (HCT-15): 2360 nM | GI50 (UO-31): 1660 nM | GI50 (ACHN): 3100 nM | average TGI across all cell lines in the panel [2]: 18400 nM | GI50 ([2]; read-out: average GI50 across all cell lines in the panel): 2920 nM | LC50 ([2]; read-out: average LC50 across all cell lines in the panel): 51200 nM | GI50 (A549/ATCC): 2440 nM | GI50 (TK-10): 4130 nM | stability of Fe(III) complexes ([3]; DMSO and water at pH 7.4): slow partial dissociation | stability of Fe(III) complexes ([3]; pH 2): complete dissociation | stability of Fe(III) complexes ([3]; pH 11.7, anoxic conditions): the changes were minimal | GI50 (CAKI-1): 3740 nM | GI50 (OVCAR-4): 3250 nM | GI50 (HS 578T): 1960 nM | GI50 (LOX IMVI): 2340 nM | GI50 (MDA-MB-435): 2310 nM | GI50 (SK-MEL-2): 1670 nM | GI50 (SK-MEL-28): 2380 nM | GI50 (UACC-257): 4340 nM | GI50 (UACC-62): 1860 nM | GI50 (M14): 2370 nM | GI50 (MALME-3M): 1930 nM | GI50 (SK-MEL-5): 1100 nM | GI50 (NCI-H522): 2070 nM | GI50 (SF-268): 2360 nM | GI50 (HT29): 7120 nM | GI50 (K-562): 2000 nM | GI50 (MDA-MB-231/ATCC): 2440 nM | GI50 (SN12C): 2530 nM | GI50 (OVCAR-3): 1990 nM | GI50 (NCI-H226): 2540 nM | GI50 (U251): 1970 nM | IC50 [4]: 14000 to 17000 nM and 17000 nM
